Here are results for 37 compounds from patent US7781591B2, “Substituted 3-cyanopyridines as protein kinase inhibitors” (Wyeth LLC, priority 2006, dated 2010).

As a reminder, the IC50 is the concentration that gives 50% inhibition.

In test [1] the target is T1, purified recombinant full length PKC theta (Panvera, P2996) (Homo sapiens, UniProt Q04759).
T1 construct: purified recombinant full length PKC theta (Panvera, P2996); purchased Panvera P2996
In words: Radioactive kinase assay for inhibition of full length (FL) PKCθ. Type of test: biochemical. The following applies: average value. As to the method:
This assay is based on the phosphorylation of a biotinylated substrate by a kinase utilizing radiolabeled ATP (ATP γ P33). The substrate was a biotinylated peptide with a sequence of biotin-[…]-C(O)NH2. […] The assay buffer was composed of 100 mM Hepes, pH7.5, 2 mM MgCl2, 20 mM β-glycerophosphate and 0.008% TritonX 100. A reaction mixture of ATP, ATP γ P33 (PerkinElmer), DTT, and the enzyme was prepared in the assay buffer and added to a 96-well polypropylene plate. The compound (diluted in DMSO in a separate 96-well polypropylene plate) was added to the reaction mixture and incubated at room temperature. Following the incubation, the peptide substrate was added to the reaction mixture to initiate the enzymatic reaction. The reaction was terminated with the addition of a stop solution (100 mM EDTA, 0.2% TritonX100, and 20 mM NaHPO4) and transferred from the assay plate to a washed streptavidin-coated 96-well scintiplate (PerkinElmer). […] Counts were recorded for each well as corrected counts per minute (CCPM). The counts were considered corrected because they were adjusted according to a P33 normalization protocol, which corrects for efficiency and background differences between the instrument detectors (software version 4.40.01).
A Radioactive Kinase Assay for Inhibition of Full Length (FL) PKCθ Inhibitors
This assay differs from what was described above in that the enzyme used was purified recombinant full length PKC theta (Panvera, P2996).

Test [2] deals with T2, human PKCθ full length enzyme (Homo sapiens, UniProt Q04759).
T2 construct: human PKCθ full length enzyme (Panvera Cat# P2996); purchased Panvera P2996
In words: PKCθ IMAP assay (fluorescence polarization). Type of test: biochemical. The following applies: human PKCθ full length enzyme, IMAP; average value; read-out: IC50 PKCθ IMAP. On the technique in general: Polarisation of emitted light reports the rotation of a fluorescent probe.

T2 sequence (Q04759 whole entry): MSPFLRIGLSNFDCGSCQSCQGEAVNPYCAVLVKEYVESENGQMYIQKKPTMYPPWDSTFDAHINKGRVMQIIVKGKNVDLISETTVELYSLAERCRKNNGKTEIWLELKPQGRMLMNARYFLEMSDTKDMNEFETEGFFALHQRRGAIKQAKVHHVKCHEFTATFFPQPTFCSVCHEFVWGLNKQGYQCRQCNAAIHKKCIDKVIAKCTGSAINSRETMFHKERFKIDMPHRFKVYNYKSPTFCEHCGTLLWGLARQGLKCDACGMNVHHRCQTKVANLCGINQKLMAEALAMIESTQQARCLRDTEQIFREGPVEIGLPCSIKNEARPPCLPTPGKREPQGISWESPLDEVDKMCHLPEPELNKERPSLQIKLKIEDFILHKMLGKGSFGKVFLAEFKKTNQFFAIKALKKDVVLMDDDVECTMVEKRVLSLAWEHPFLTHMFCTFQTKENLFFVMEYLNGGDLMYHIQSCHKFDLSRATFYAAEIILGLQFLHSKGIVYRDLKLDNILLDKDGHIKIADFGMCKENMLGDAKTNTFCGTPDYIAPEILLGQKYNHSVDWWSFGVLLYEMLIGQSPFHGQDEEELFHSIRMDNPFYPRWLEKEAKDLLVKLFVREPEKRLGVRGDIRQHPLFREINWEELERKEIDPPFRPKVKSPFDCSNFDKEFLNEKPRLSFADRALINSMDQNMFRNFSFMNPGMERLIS
T1 sequence (Q04759 whole entry): as above

On to `N#Cc1cncc(-c2cccc(-c3cccc(N)c3)c2)c1Nc1ccc2[nH]ccc2c1` [Compound 117, 5-(3′-aminobiphenyl-3-yl)-4-(1H-indol-5-ylamino)nicotinonitrile], for which, in test [1], the IC50 is 140 nM. For the compound `N#Cc1ccc(-c2cccc(-c3cncc(C#N)c3Nc3ccc4[nH]ccc4c3)c2)cc1` [Compound 118, 5-(4′-cyanobiphenyl-3-yl)-4-(1H-indol-5-ylamino)nicotinonitrile], the IC50 in test [1] turned out to be 90 nM. For the compound `N#Cc1cncc(-c2cccc(-c3ccncc3)c2)c1Nc1ccc2[nH]ccc2c1` [Compound 121, 4-(1H-indol-5-ylamino)-5-(3-pyridin-4-ylphenyl)nicotinonitrile], the IC50 in test [1] turned out to be 170 nM. On the same count and under the same terms, for `CN(C)C(=O)c1ccc(-c2cccc(-c3cncc(C#N)c3Nc3ccc4[nH]ccc4c3)c2)cc1` [Compound 122, 3′-[5-cyano-4-(1H-indol-5-ylamino)pyridin-3-yl]-N,N-dimethylbiphenyl-4-carboxamide] the value was 340 nM; for `Cc1cccc(-c2cccc(-c3cncc(C#N)c3Nc3ccc4[nH]ccc4c3)c2)c1` [Compound 127, 4-(1H-indol-5-ylamino)-5-(3′-methylbiphenyl-3-yl)nicotinonitrile], 290 nM; for `N#Cc1cncc(-c2cccc(-c3cccc(C(=O)O)c3)c2)c1Nc1ccc2[nH]ccc2c1` [Compound 133, 3′-[5-cyano-4-(1H-indol-5-ylamino)pyridin-3-yl]biphenyl-3-carboxylic acid], 370 nM. Still for that read-out and setting: for `N#Cc1cncc(-c2cccc(-c3ccc(C(=O)O)cc3)c2)c1Nc1ccc2[nH]ccc2c1` [Compound 134, 3′-[5-cyano-4-(1H-indol-5-ylamino)pyridin-3-yl]biphenyl-4-carboxylic acid] the value was 390 nM; for `N#Cc1cncc(-c2cccc(-c3cccnc3)c2)c1Nc1ccc2[nH]ccc2c1` [Compound 137, 4-(1H-indol-5-ylamino)-5-(3-pyridin-3-ylphenyl)nicotinonitrile], 70 nM. On to `N#Cc1cncc(-c2cccc(-c3ccsc3)c2)c1Nc1ccc2[nH]ccc2c1` [Compound 141, 4-(1H-indol-5-ylamino)-5-[3-(3-thienyl)phenyl]nicotinonitrile], for which the IC50 in test [1] was 90 nM. The same measure, in the same setting: for `N#Cc1cncc(-c2ccccc2-c2ccccc2Cl)c1Nc1ccc2[nH]ccc2c1` [Compound 143, 5-(2′-chlorobiphenyl-2-yl)-4-(1H-indol-5-ylamino)nicotinonitrile] the value was 910 nM; for `N#Cc1cncc(-c2ccccc2-c2cccc(Cl)c2)c1Nc1ccc2[nH]ccc2c1` [Compound 144, 5-(3′-chlorobiphenyl-2-yl)-4-(1H-indol-5-ylamino)nicotinonitrile], 910 nM; for `N#Cc1cncc(-c2ccccc2-c2ccc(Cl)cc2)c1Nc1ccc2[nH]ccc2c1` [Compound 145, 5-(4′-chlorobiphenyl-2-yl)-4-(1H-indol-5-ylamino)nicotinonitrile], 1920 nM.

As for `N#Cc1cncc(-c2ccccc2-c2ccsc2)c1Nc1ccc2[nH]ccc2c1` [Compound 146, 4-(1H-indol-5-ylamino)-5-[2-(3-thienyl)phenyl]nicotinonitrile], the IC50 in test [1] came to 1330 nM. As to `CC(=O)Nc1cccc(-c2cncc(C#N)c2Nc2ccc3[nH]ccc3c2)c1` [Compound 152, N-{3-[5-cyano-4-(1H-indol-5-ylamino)pyridin-3-yl]phenyl}acetamide], the 50% inhibitory concentration (IC50) in test [1] came out at 1940 nM. Still for that read-out and setting: for `COCCOc1cc(-c2cncc(C#N)c2Nc2cccc3[nH]ccc23)ccc1OC` [Compound 153, 4-(1H-indol-4-ylamino)-5-[4-methoxy-3-(2-methoxyethoxy)phenyl]nicotinonitrile] the value was 40 nM. Turning to `COCCOc1cc(-c2cncc(C#N)c2Nc2ccc3cc[nH]c3c2)ccc1OC` [Compound 155, 4-(1H-indol-6-ylamino)-5-[4-methoxy-3-(2-methoxyethoxy)phenyl]nicotinonitrile], in test [1], the IC50 came out at 7800 nM.

Turning to `COCCOc1cc(-c2cncc(C#N)c2Nc2ccc3ncsc3c2)ccc1OC` [Compound 156, 4-(1,3-benzothiazol-6-ylamino)-5-[4-methoxy-3-(2-methoxyethoxy)phenyl]nicotinonitrile], the IC50 in test [1] was greater than 20000 nM. Still for that read-out and setting: for `COCCOc1cc(-c2cncc(C#N)c2Nc2ccc3[nH]c(C)cc3c2)ccc1OC` [Compound 157, 5-[4-methoxy-3-(2-methoxyethoxy)phenyl]-4-[(2-methyl-1H-indol-5-yl)amino]nicotinonitrile] the value was 550 nM; for `COCCOc1cc(-c2cncc(C#N)c2Nc2ccc3[nH]nnc3c2)ccc1OC` [Compound 158, 4-(1H-1,2,3-benzotriazol-5-ylamino)-5-[4-methoxy-3-(2-methoxyethoxy)phenyl]nicotinonitrile], 37400 nM; for `COCCOc1ccc(-c2cncc(C#N)c2Nc2ccc3[nH]ccc3c2)cc1OC` [Compound 160, 4-(1H-indol-5-ylamino)-5-[3-methoxy-4-(2-methoxyethoxy)phenyl]nicotinonitrile], 140 nM. Consider `COCCOc1ccc(-c2cncc(C#N)c2Nc2ccc3cc[nH]c3c2)cc1OC` [Compound 161, 4-(1H-indol-6-ylamino)-5-[3-methoxy-4-(2-methoxyethoxy)phenyl]nicotinonitrile], for which the concentration for half-maximal inhibition (IC50) in test [1] is 5500 nM.

With `COCCOc1ccc(-c2cncc(C#N)c2Nc2ccc3ncsc3c2)cc1OC` [Compound 162, 4-(1,3-benzothiazol-6-ylamino)-5-[3-methoxy-4-(2-methoxyethoxy)phenyl]nicotinonitrile], the IC50 in test [1] came out at 15000 nM. Turning to `COCCOc1ccc(-c2cncc(C#N)c2Nc2ccc3[nH]c(C)cc3c2)cc1OC` [Compound 163, 5-[3-methoxy-4-(2-methoxyethoxy)phenyl]-4-[(2-methyl-1H-indol-5-yl)amino]nicotinonitrile], in test [1], the IC50 stood at 320 nM. In the case of `N#Cc1cncc(-c2cccc(OCCCl)c2)c1Nc1cccc2[nH]ccc12` [Compound 165, 5-[3-(2-chloroethoxy)phenyl]-4-(1H-indol-4-ylamino)nicotinonitrile], the IC50 in test [1] was determined as 20 nM. Consider `N#Cc1cncc(-c2cccc(OCCCl)c2)c1Nc1ccc2cc[nH]c2c1` [Compound 166, 5-[3-(2-chloroethoxy)phenyl]-4-(1H-indol-6-ylamino)nicotinonitrile], for which, in test [1], the IC50 is 3830 nM. Same read-out and setting: then `N#Cc1cncc(-c2cccc(OCCCl)c2)c1Nc1ccc2[nH]ccc2c1` [Compound 167, 5-[3-(2-chloroethoxy)phenyl]-4-(1H-indol-5-ylamino)nicotinonitrile], with 110 nM.

`Cc1c(Nc2c(C#N)cncc2-c2csc3ccccc23)ccc2[nH]ccc12` [Compound 585, 5-(1-benzothiophen-3-yl)-4-[(4-methyl-1H-indol-5-yl)amino]nicotinonitrile]: in test [2], the IC50 turned out to be 88 nM. The same measure, in the same setting: then `Cc1c(Nc2c(C#N)cncc2-c2cc3ccccc3n2C)ccc2[nH]ccc12` [Compound 586, 5-(1-methyl-1H-indol-2-yl)-4-[(4-methyl-1H-indol-5-yl)amino]nicotinonitrile], with 8.7 nM; and `Cc1c(Nc2c(C#N)cncc2-c2ccc3[nH]ccc3c2)ccc2[nH]ccc12` [Compound 587, 5-(1H-indol-5-yl)-4-[(4-methyl-1H-indol-5-yl)amino]nicotinonitrile], with 36 nM. The same measure, in the same setting: for `Cc1c(Nc2c(C#N)cncc2-c2ccc3cc[nH]c3c2)ccc2[nH]ccc12` [Compound 588, 5-(1H-indol-6-yl)-4-[(4-methyl-1H-indol-5-yl)amino]nicotinonitrile] the value was 57 nM; for `Cc1c(Nc2c(C#N)cncc2-c2cnc3ccccc3c2)ccc2[nH]ccc12` [Compound 589, 4-[(4-methyl-1H-indol-5-yl)amino]-5-quinolin-3-ylnicotinonitrile], 191 nM. As to `Cc1c(Nc2c(C#N)cncc2-c2cccc3cccnc23)ccc2[nH]ccc12` [Compound 590, 4-[(4-methyl-1H-indol-5-yl)amino]-5-quinolin-8-ylnicotinonitrile], the IC50 in test [2] was found to be 972 nM. On to `Cc1c(Nc2c(C#N)cncc2-c2ccc3occc3c2)ccc2[nH]ccc12` [Compound 591, 5-(1-benzofuran-5-yl)-4-[(4-methyl-1H-indol-5-yl)amino]nicotinonitrile], for which the 50% inhibitory concentration (IC50) in test [2] came out at 19.7 nM. As for `Cc1c(Nc2c(C#N)cncc2-c2cccc3ncccc23)ccc2[nH]ccc12` [Compound 592, 4-(4-methyl-1H-indol-5-ylamino)-5-(quinolin-5-yl)nicotinonitrile], the IC50 in test [2] is 6.9 nM. In the case of `Cc1c(Nc2c(C#N)cncc2-c2ccc3c(c2)sc2ccccc23)ccc2[nH]ccc12` [Compound 593, 5-(dibenzo[b,d]thiophen-3-yl)-4-(4-methyl-1H-indol-5-ylamino)nicotinonitrile], the IC50 in test [2] worked out at 120 nM. For `Cc1c(Nc2c(C#N)cncc2-c2ccc3sccc3c2)ccc2[nH]ccc12` [Compound 594, 5-(benzo[b]thiophen-5-yl)-4-(4-methyl-1H-indol-5-ylamino)nicotinonitrile], the IC50 in test [2] is 38 nM. Still for that read-out and setting: then `Cc1c(Nc2c(C#N)cncc2-c2cccc3[nH]ccc23)ccc2[nH]ccc12` [Compound 595, 5-(1H-indol-4-yl)-4-(4-methyl-1H-indol-5-ylamino)nicotinonitrile], with 46 nM.
